In patent publication US20260217701A1, “SELECTIVE BET INHIBITORS AND USES THEREOF” (Tay Therapeutics Limited, priority 2022, published 2026):
Where “and” joins values, the source holds several entries; their conditions need not be identical. Equal values may be shown once.

Assay: Dog PK study #3 (Compound A PO once daily 5 days, 5/10/20 mg/kg; PK, body weight, hematology)
Assay type: in vivo, beagle dogs
Set-up: Plasma Concentration: unit not given here
Method: For the third dog pharmacokinetic study, three solutions of different concentrations of Compound A were prepared in 5% DMSO/15% PEG-400/80% (10% VE-TPGS) as outlined in Table 2E. The Compound A solutions were administered to animals orally (PO) once daily over a five-day period. Body weight was recorded prior to dosing, and detailed clinical observations were made prior to dosing and throughout the study, as needed.
Animals were divided into Day 1 and Day 5 sample collection groups, with animals in the Day 1 collection group having blood samples taken prior to dosing and at 0.25, 0.5, 1, 2, 4, 8, and 24 hours after dosing on day 1. Animals in the Day 5 collection group having blood samples taken prior to dosing and at 0.25, 0.5, 1, 2, 4, 8, and 24 hours after dosing on day 5. Study groups are outlined in Table 3D.
Blood samples (~0.3 mL) were collected on day according to the following schedule (0.25, 0.5, 1, 2, 4, 8, and 24 h) after day 5 administration of Compound A by venipuncture of peripheral veins except for the dosing vein, and EDTA-K2 was used as anticoagulant. Within 30 minutes of collection, the samples were centrifuged at approximately 2000 times g-force for 10 minutes at 4° C. to obtain blood plasma. The plasma samples were immediately divided into two aliquots (~75 μL each), transferred to a cryogenic vial, and stored in a freezer at −75±15° C. prior to analysis.
The concentration of Compound A in the blood plasma was determined through LC-MS as previously described. Briefly, the experiments were conducted on a DMPK-LCMS-14-SMBA Triple Quad 6500 Plus instrument with an ACQUITY UPLC BEH C18 1.7 μm (50×2.1 mm) column. The matrix was male beagle dog plasma potassium (K2) EDTA A gradient of 95% water (0.1% formic acid and 2 mM HCOONH4)/95% acetonitrile (0.1% formic acid and 2 mM HCOONH4) was used as the mobile phase. The sample flow rate was 0.6 mL/min.
The samples were then vortex-mixed for 10 minutes at 800 rpm and centrifuged for 15 minutes at 3220×g at 4° C. 50 μL aliquots of supernatant were transferred to a clean 96-well plate and centrifuged for 5 minutes at 3220×g at 4° C. Samples were then injected into the LC/MS/MS system for quantitative analysis.
The gathered data were used for pharmacokinetic calculations using T1/2, CO, AUClast, AUCinf, MRTinf, Cl, Vss, and Number of Points for Regression as parameters.
The cell composition (hematology) of blood samples was analyzed at day 5. Analyses identified the total number of white blood cells, neutrophils, lymphocytes, monocytes, eosinophils, basophils, and platelets in collected samples.

[1] = Day 1, 5 mg/kg dose PO, individual animals
[2] = Day 1, 10 mg/kg dose PO, individual animals
[3] = Day 1, 20 mg/kg dose PO, individual animals

## Cn1cc(-c2ccccc2)c(-c2cn(C)c(=O)c3[nH]c(-c4cnn(C(F)(F)F)c4)cc23)cc1=O [Compound A, 6-methyl-4-(1-methyl-2-oxo-5-phenyl-1,2-dihydropyridin-4-yl)-2-(1-(trifluoromethyl)-1H-pyrazol-4-yl)-1,6-dihydro-7H-pyrrolo[2,3-c]pyridin-7-one]
Day 1, 5 mg/kg dose PO, time 0, individual animals
  Plasma Concentration: BQL
Day 1, 5 mg/kg dose PO, time 0.25, individual animals
  Plasma Concentration: 9.79 and 28.1
Day 1, 5 mg/kg dose PO, time 0.25, mean
  Plasma Concentration: 18.9
Day 1, 5 mg/kg dose PO, time 0.5, individual animals
  Plasma Concentration: 206 and 326
Day 1, 5 mg/kg dose PO, time 0.5, mean
  Plasma Concentration: 266
Day 1, 5 mg/kg dose PO, time 1, individual animals
  Plasma Concentration: 523 and 590
Day 1, 5 mg/kg dose PO, time 1, mean
  Plasma Concentration: 557
Day 1, 5 mg/kg dose PO, time 2, individual animals
  Plasma Concentration: 587 and 671
Day 1, 5 mg/kg dose PO, time 2, mean
  Plasma Concentration: 629
Day 1, 5 mg/kg dose PO, time 4, individual animals
  Plasma Concentration: 765 and 686
Day 1, 5 mg/kg dose PO, time 4, mean
  Plasma Concentration: 726
Day 1, 5 mg/kg dose PO, time 8, individual animals
  Plasma Concentration: 785 and 424
Day 1, 5 mg/kg dose PO, time 8, mean
  Plasma Concentration: 605
Day 1, 5 mg/kg dose PO, time 24, individual animals
  Plasma Concentration: 166 and 58.7
Day 1, 5 mg/kg dose PO, time 24, mean
  Plasma Concentration: 112
[1]
  AUC0-last: 7398 ng·h/mL
  AUCExtra: 6.05%
  AUMCExtra: 20.9%
  Cl_F: 10.6 mL/min/kg
  Cmax: 686 ng/mL
  MRT0-last: 7.83 h
  Tlast: 24.0 h
  Vz_F: 5.16 L/kg
Day 1, 5 mg/kg dose PO, mean
  AUC0-last: 9495 ng·h/mL
  Tlast: 24.0 h
Day 1, 10 mg/kg dose PO, time 0, individual animals
  Plasma Concentration: BQL
Day 1, 10 mg/kg dose PO, time 0.25, individual animals
  Plasma Concentration: 310 and 258
Day 1, 10 mg/kg dose PO, time 0.25, mean
  Plasma Concentration: 284
Day 1, 10 mg/kg dose PO, time 0.5, individual animals
  Plasma Concentration: 948 and 954
Day 1, 10 mg/kg dose PO, time 0.5, mean
  Plasma Concentration: 951
Day 1, 10 mg/kg dose PO, time 1, individual animals
  Plasma Concentration: 1330 and 1260
Day 1, 10 mg/kg dose PO, time 1, mean
  Plasma Concentration: 1295
Day 1, 10 mg/kg dose PO, time 2, individual animals
  Plasma Concentration: 1820 and 1450
Day 1, 10 mg/kg dose PO, time 2, mean
  Plasma Concentration: 1635
Day 1, 10 mg/kg dose PO, time 4, individual animals
  Plasma Concentration: 2010 and 1380
Day 1, 10 mg/kg dose PO, time 4, mean
  Plasma Concentration: 1695
Day 1, 10 mg/kg dose PO, time 8, individual animals
  Plasma Concentration: 1080 and 860
Day 1, 10 mg/kg dose PO, time 8, mean
  Plasma Concentration: 970
Day 1, 10 mg/kg dose PO, time 24, individual animals
  Plasma Concentration: 138 and 134
Day 1, 10 mg/kg dose PO, time 24, mean
  Plasma Concentration: 136
[2]
  AUC0-last: 15568 ng·h/mL
  AUC(0-inf): 16719 ng·h/mL
  AUCExtra: 5.08% and 6.88%
  AUMCExtra: 18.2% and 23.5%
  Cl_F: 8.12 mL/min/kg and 9.97 mL/min/kg
  Cmax: 1450 ng/mL
  MRT0-inf: 9.54 h
  MRT0-last: 7.84 h
  Tlast: 24.0 h
  T½: 5.95 h
  Vz_F: 3.68 L/kg and 5.14 L/kg
Day 1, 10 mg/kg dose PO, mean
  AUC0-last: 17527 ng·h/mL
  AUCExtra: 5.98%
  AUMCExtra: 20.9%
  Cl_F: 9.04 mL/min/kg
  Tlast: 24.0 h
  Vz_F: 4.41 L/kg
Day 1, 20 mg/kg dose PO, time 0, individual animals
  Plasma Concentration: BQL
Day 1, 20 mg/kg dose PO, time 0.25, individual animals
  Plasma Concentration: 413 and 438
Day 1, 20 mg/kg dose PO, time 0.25, mean
  Plasma Concentration: 426
Day 1, 20 mg/kg dose PO, time 0.5, individual animals
  Plasma Concentration: 2090 and 1440
Day 1, 20 mg/kg dose PO, time 0.5, mean
  Plasma Concentration: 1765
Day 1, 20 mg/kg dose PO, time 1, individual animals
  Plasma Concentration: 3430 and 3440
Day 1, 20 mg/kg dose PO, time 1, mean
  Plasma Concentration: 3435
Day 1, 20 mg/kg dose PO, time 2, individual animals
  Plasma Concentration: 3620 and 5590
Day 1, 20 mg/kg dose PO, time 2, mean
  Plasma Concentration: 4605
Day 1, 20 mg/kg dose PO, time 4, individual animals
  Plasma Concentration: 4330 and 6000
Day 1, 20 mg/kg dose PO, time 4, mean
  Plasma Concentration: 5165
Day 1, 20 mg/kg dose PO, time 8, individual animals
  Plasma Concentration: 3170 and 4570
Day 1, 20 mg/kg dose PO, time 8, mean
  Plasma Concentration: 3870
Day 1, 20 mg/kg dose PO, time 24, individual animals
  Plasma Concentration: 394 and 1810
Day 1, 20 mg/kg dose PO, time 24, mean
  Plasma Concentration: 1102
[3]
  AUC0-last: 86304 ng·h/mL
  AUC(0-inf): 52608 ng·h/mL and 116806 ng·h/mL
  AUCExtra: 6.10% and 26.1%
  AUMCExtra: 20.3% and 58.8%
  Cl_F: 6.34 mL/min/kg and 2.85 mL/min/kg
